According to publication PMC2713098 (Nuclear medicine and biology, 2009):
“Also recorded” adds a separate entry of the source. Like-named read-outs stand apart in the source and are kept apart here.

Assays:
[1] = In vivo biodistribution study in rats; parameters: species or system rat; settings: for uptake in testes over time: i.v., 15, 60 and 120 min post-injection
[2] = molecular target: T1, rat A3AR (Rattus norvegicus, UniProt P28647); assay: Competitive radioligand binding at rat A3AR in CHO cell membranes using [76Br]4; settings: for potency in binding to the rat A3AR: Figures 1A and 1B, [76Br]4 or [76Br]6 as radioligand; for Ki: read-out: Rat Ki, CHO cell membranes, radioligand [76Br]4 0.5 nM, 25°C 60 min
T1 sequence (P28647 1-320): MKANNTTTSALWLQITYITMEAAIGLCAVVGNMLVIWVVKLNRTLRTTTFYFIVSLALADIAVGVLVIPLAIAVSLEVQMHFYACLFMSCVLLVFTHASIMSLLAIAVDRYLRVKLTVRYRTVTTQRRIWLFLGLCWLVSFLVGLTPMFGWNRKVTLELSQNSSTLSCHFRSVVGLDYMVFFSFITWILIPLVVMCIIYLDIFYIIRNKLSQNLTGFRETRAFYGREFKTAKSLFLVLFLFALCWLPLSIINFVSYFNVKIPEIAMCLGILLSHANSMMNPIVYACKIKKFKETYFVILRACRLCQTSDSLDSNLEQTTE

[3] = molecular target: T2, human A3AR (Homo sapiens, UniProt P0DMS8); settings: for potency at human versus rat A3AR: Figures 1A and 1B; for Ki: read-out: Human Ki, CHO cell membranes, radioligand [76Br]4 0.5 nM, 25°C 60 min
T2 sequence (P0DMS8 1-318): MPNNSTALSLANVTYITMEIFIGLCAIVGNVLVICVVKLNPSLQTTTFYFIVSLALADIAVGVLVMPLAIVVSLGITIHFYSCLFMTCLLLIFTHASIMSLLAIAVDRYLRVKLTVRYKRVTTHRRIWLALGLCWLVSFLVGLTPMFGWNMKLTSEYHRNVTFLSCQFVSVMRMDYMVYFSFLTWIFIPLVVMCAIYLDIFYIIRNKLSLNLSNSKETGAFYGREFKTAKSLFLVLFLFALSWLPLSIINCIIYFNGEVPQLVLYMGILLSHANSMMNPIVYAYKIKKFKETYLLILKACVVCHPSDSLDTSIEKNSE

[4] = molecular target: T1, rat A3AR
[5] = molecular target: T2, human A3AR; settings: read-out: Human Ki; CHO cell membranes, radioligand [76Br]MRS5147 6
[6] = molecular target: T2, human A3AR; settings: cited from earlier work
[7] = In vitro metabolism in rat hepatocytes; format: in vitro ADME; settings: 20 μg/mL, 37°C, up to 4 hours; only very small amounts of metabolites by LC/MS
[8] = In vitro metabolism in human hepatocytes; format: in vitro ADME; settings: 20 μg/mL, 37°C, up to 4 hours; only very small amounts of metabolites by LC/MS
[9] = system: A3AR; assay: In vitro tissue binding; settings: rat whole brain and testes slices, with and without inhibitors, preliminary
[10] = read-out: Rat Ki, CHO cell membranes, radioligand [76Br]MRS5147 6

Ki [2]	Structure (SMILES)	uptake in testes over time ([1]; rat)	potency in binding to the rat A3AR [2]	potency at human versus rat A3AR [3]	Ki [3]	Ki [4, 10]	also measured
	O[C@@H]1[C@H](O)[C@@H]2C[C@@H]2[C@H]1n1cnc2c(NCc3cccc([76Br])c3)nc(Cl)nc21 [[^76Br]6, [^76Br](1R,2R,3S,4R,5S)-4-(6-(3-bromobenzylamino)-2-chloro-9H-purin-9-yl)bicyclo[3.1.0]hexane-2,3-diol]	continued to increase with time; also recorded: statistically increased relative to the 15 min time point					tissue uptake relative to agonist [76Br]4 ([1]; rat, i.v., %ID/g): an order of magnitude lower
	O[C@@H]1[C@H](O)[C@@H]2C[C@@H]2[C@H]1n1cnc2c(NCc3cccc(Br)c3)nc(Cl)nc21 [compound 6, (1R,2R,3S,4R,5S)-4-(6-(3-bromobenzylamino)-2-chloro-9H-purin-9-yl)bicyclo[3.1.0]hexane-2,3-diol]	increasing uptake in testes					Ki [4]: 5.2 ± 1.8 nM
> 10000 nM	O=C(Cc1ccccc1)Nc1nc2ccc(Cl)cc2c2nc(-c3ccco3)nn12 [MRS1220, N-[9-chloro-2-(2-furanyl)[1,2, 4]triazolo[1,5-c]quinazolin-5-yl]benzeneacetamide]		ineffective			> 10000 nM	
0.9 ± 0.07 nM	CNC(=O)[C@]12C[C@@H]1[C@@H](n1cnc3c(NCc4cccc(Br)c4)nc(Cl)nc31)[C@H](O)[C@@H]2O [compound 4, (1′R,2′R,3′S,4′R,5′S)-4-{2-chloro-6-[(3-bromophenylmethyl)amino]purin-9-yl}-1-(methylaminocarbonyl)bicyclo[3.1.0]hexane-2,3-diol]			equally potent	0.63 ± 0.05 nM		selectivity in comparison to other AR subtypes [6]: high selectivity; Ki ([6]; read-out: Ki value at the human A3AR, shown previously, listed as 4 (MRS3581)): 0.38 nM
	CNC(=O)[C@]12C[C@@H]1[C@@H](n1cnc3c(NCc4cccc([76Br])c4)nc(Cl)nc31)[C@H](O)[C@@H]2O [[^76Br]4, [^76Br](1′R,2′R,3′S,4′R,5′S)-4-{2-chloro-6-[(3-bromophenylmethyl)amino]purin-9-yl}-1-(methylaminocarbonyl)bicyclo[3.1.0]hexane-2,3-diol]						metabolic stability in rat hepatocytes [7]: very stable; metabolic stability in human hepatocytes [8]: very stable; specific uptake of radioligand in tissue slices [9]: fail to show any specific uptake; organs of primary uptake ([1]; i.v., Sprague-Dawley rats, 15-120 min): liver and kidneys

Structure (SMILES)	Ki [2]	uptake in testes over time ([1]; rat)	potency in binding to the rat A3AR [2]	potency at human versus rat A3AR [3]	Ki [3]	Ki [4, 10]	also measured
CCCOC(=O)c1c(-c2ccccc2)nc(CC)c(C(=O)SCC)c1CCC [MRS1523, 3-propyl-6-ethyl-5-[(ethylthio)carbonyl]-2-phenyl-4-propyl-3-pyridine carboxylate, reference compound]	939 ± 98 nM		moderately potent	more potent at the human A3AR	125 ± 13 nM	2830 ± 520 nM	Ki [5]: 120 ± 17 nM
